Assay results: patent US20120252792A1, “METHODS AND COMPOSITIONS FOR MODULATING RHO-MEDIATED GENE TRANSCRIPTION” (THE REGENTS OF THE UNIVERSITY OF MICHIGAN, priority 2009, published 2012)

Legend:
Rho/MKL1 pathway = test: SRE.L-firefly luciferase reporter (dual luciferase assay), Gα12QL-transfected PC-3 cells; assay type: cell-based, human; conditions: for inhibition at 10 µM: read-out: % inh SRE.L (10 μM); for inhibition at 100 µM: read-out: % inh SRE.L (100 μM)
Experimental: (§1) Dual Luciferase Assay: Seed PC-3 prostate cancer cells (40,000 cells/well) were grown in 96-well plates in 10% FBS containing DMEM medium. Cells were transiently transfected with the Gα12QL activator of the Rho/MKL1 pathway, along with the SRE.L-firefly luciferase reporter construct for 6 hours. Additionally, cells were co-transfected with the TK-Renilla luciferase reporter as an indicator of non-specific compound effects. Various concentrations of selected compounds were added to the 96-well plates. Plates were incubated for 19 hours at 37° C. and 5% CO2 in 0.5% FBS containing DMEM medium. Cells were lysed with 1X Passive Lysis Buffer (Promega). Plates were incubated for 30 minutes at room temperature. Luminescence counts were read with a Victor2 (Perkin-Elmer) plate reader.

[1] = system: TK-Renilla luciferase reporter; test: TK-Renilla (pRL-TK) luciferase reporter, indicator of non-specific compound effects; assay type: cell-based, human; conditions: PC-3 cells; for inhibition at 10 µM / inhibition at 100 µM: Homo sapiens, PC-3, 19 h; for inhibition at 10 µM: read-out: % inh PRL-TK (10 μM); for inhibition at 100 µM: read-out: % inh PRL-TK (100 μM)
Experimental: as §1

[2] = system: PC-3 prostate cancer cells; test: WST1 cell viability assay; assay type: cell-based, human; conditions: PC-3 cells, just before lysis; for inhibition at 10 µM / inhibition at 100 µM: Homo sapiens; for inhibition at 10 µM: PC-3, 10 μM, read-out: % inh WST-1 (10 μM); for inhibition at 100 µM: PC-3, 100 μM, read-out: % inh WST-1 (100 μM)
Experimental: WST1 Cell Viability Assay: One hour prior to cell lysis for the dual luciferase assay, 10 μl per well of WST1 reagent (Roche) was added to the 96-well plates. Plates were incubated for 1 hour at 37° C. and 5% CO2. Cell viability was measured by WST1 absorbance at 450 nm with a Victor2 (Perkin-Elmer) plate reader.

[3] = In vivo studies using CCG-1423
[4] = system: PC-3 cells, melanoma and other cancer cell lines; test: Cancer cell proliferation and survival (BrdUrd, WST-1, caspase-3; FIG. 2); assay type: cell-based
Experimental: A, PC-3 cells were treated for 27 h with 100 μmol/L LPA in the presence or absence of various concentrations of CCG-1423, labeled with BrdUrd, and stained, and absorbance was read 450 nm. B, various cell lines were treated with […] LPA with or without […] CCG-1423, and then on day 8, WST-1 absorbance was read at 450 nm Black columns indicate four melanoma lines with differing expression of RhoC (A375M2 and SK-MeI-147 have high expression, whereas the parental line A375 (used to derive A375M2) and SK-Mel-28 have lower expression); gray columns indicate several other cancer cell lines; white column indicates the nontransformed fibroblast line WI-38. C, A375 and A375M2 cells were treated with 3 μmol/L CCG-1423 or 3 μmol/L daunorubicin for 25 h, and then caspase-3 activity was measured with a fluorescent substrate (Z0DEVD0R110) using excitation at 485 nm and emission detection at 520 nm. In A and C, data are expressed as a percentage of the no FBS control. In B, data are expressed as percentage of the LPA+DMSO control. All data represent n=3.

[5] = system: PC-3 prostate cancer cells; test: Matrigel invasion, spontaneous (FIG. 3); assay type: cell-based, human; conditions: 3 μmol/L, spontaneous invasion through Matrigel
Experimental: A, LPA stimulates invasion of SKOV-3 but not PC-3 cells. Invasion of Matrigel®-coated filters by serum-starved PC-3 prostate cancer or SKOV-3 ovarian cancer cells were measured with or without 30 μmol/L LPA as chemoattractant. B, CCG-1423 inhibits PC-3 cell invasion, whereas PTX inhibits SKOV-3 cell invasion. The effects of CCG-1423 (3 μmol/L) and PTX (100 ng/mL) on spontaneous (PC-3) or LPA-stimulated (SKOV-3) invasion through Matrigel® were measured. In B, data are expressed as a percentage of control. All data represent n=3.

[6] = system: Rho/MKL1 mediated transcription; conditions: read-out: IC50 for blocking gene transcription; cited from earlier work
[7] = system: Rho-expressing prostate cancer and melanoma cell lines; conditions: read-out: IC50 for inhibiting DNA synthesis, cell growth and survival, and Matrigel invasion; cited from earlier work
[8] = Homo sapiens, 19 h, DMSO alone = 0%
[9] = Homo sapiens, 19 h, 100 μM, DMSO alone = 0%

IC50 (Rho/MKL1 pathway; Homo sapiens, 19 h) [µM]	Structure (SMILES)	% inh SRE.L (10 μM) (Rho/MKL1 pathway; 19 hrs, DMSO alone = 0%)	IC50 (Rho/MKL1 pathway; 19 hrs) [µM]	% inh PRL-TK (10 μM) ([1]; 10 μM, 19 hrs)	% inh WST-1 (10 μM) ([2]; 10 μM)	in vivo toxicity [3]	cancer cell proliferation and survival [4]	PC-3 cell invasion [5]	IC50 [6] [µM]	IC50 [7] [µM]	% inh SRE.L (100 μM) (Rho/MKL1 pathway; 100 μM, 19 hrs, DMSO alone = 0%) [%]	inhibition at 10 µM (Rho/MKL1 pathway; [8]) [%]	inhibition at 100 µM (Rho/MKL1 pathway; [9]) [%]	% inh PRL-TK (100 μM) ([1]; 100 μM, 19 hrs) [%]	inhibition at 10 µM ([1]; 10 μM) [%]	inhibition at 100 µM ([1]; 100 μM) [%]	% inh WST-1 (100 μM) ([2]; 100 μM, 100 µM) [%]	inhibition at 10 µM [2] [%]	inhibition at 100 µM [2] [%]
25	O=C(CCNC(=O)c1cc(C(F)(F)F)cc(C(F)(F)F)c1)Nc1ccc(Cl)cc1 [Compound 30, N-(3-(4-chlorophenylamino)-3-oxopropyl)-3,5-bis(trifluoromethyl)benzamide]	38%	38								64	44	66	22	0	15	10	0	6
4.7	O=C(CONC(=O)c1cc(C(F)(F)F)cc(C(F)(F)F)c1)Nc1ccc(Cl)cc1 [Compound 1, N-(2-(4-chlorophenylamino)-2-oxoethoxy)-3,5-bis(trifluoromethyl)benzamide]											71	100		53	89		42	91
8.1	O=C(CCNCc1cc(C(F)(F)F)cc(C(F)(F)F)c1)Nc1ccc(Cl)cc1 [Compound 22, 3-(3,5-bis(trifluoromethyl)benzylamino)-N-(4-chlorophenyl)propanamide]											64	100		12	91		0	92
33	O=C(CNC(=O)c1cc(C(F)(F)F)cc(C(F)(F)F)c1)Nc1ccc(Cl)cc1 [Compound 3, N-(2-(4-chlorophenylamino)-2-oxoethyl)-3,5-bis(trifluoromethyl)benzamide]											45	85		15	25		0	30
21	O=C(CCCNC(=O)c1cc(C(F)(F)F)cc(C(F)(F)F)c1)Nc1ccc(Cl)cc1 [Compound 2, N-(4-(4-chlorophenylamino)-4-oxobutyl)-3,5-bis(trifluoromethyl)benzamide]											37	79		5	42		0	12
8.6	O=C(CONC(=O)c1ccc(Cl)cc1)Nc1cc(C(F)(F)F)cc(C(F)(F)F)c1 [Compound 6, N-(2-(3,5-bis(trifluoromethyl)phenylamino)-2-oxoethoxy)-4-chlorobenzamide]											58	100		19	87		11	96
5.1	O=C(NCCCNc1ccc(Cl)cc1)c1cc(C(F)(F)F)cc(C(F)(F)F)c1 [Compound 15, N-(3-(4-chlorophenylamino)propyl)-3,5-bis(trifluoromethyl)benzamide]											70	80		37	35		0	11

Continued, compound first:

Structure (SMILES)	IC50 (Rho/MKL1 pathway; Homo sapiens, 19 h) [µM]	% inh SRE.L (10 μM) (Rho/MKL1 pathway; 19 hrs, DMSO alone = 0%)	IC50 (Rho/MKL1 pathway; 19 hrs) [µM]	% inh PRL-TK (10 μM) ([1]; 10 μM, 19 hrs)	% inh WST-1 (10 μM) ([2]; 10 μM)	in vivo toxicity [3]	cancer cell proliferation and survival [4]	PC-3 cell invasion [5]	IC50 [6] [µM]	IC50 [7] [µM]	% inh SRE.L (100 μM) (Rho/MKL1 pathway; 100 μM, 19 hrs, DMSO alone = 0%) [%]	inhibition at 10 µM (Rho/MKL1 pathway; [8]) [%]	inhibition at 100 µM (Rho/MKL1 pathway; [9]) [%]	% inh PRL-TK (100 μM) ([1]; 100 μM, 19 hrs) [%]	inhibition at 10 µM ([1]; 10 μM) [%]	inhibition at 100 µM ([1]; 100 μM) [%]	% inh WST-1 (100 μM) ([2]; 100 μM, 100 µM) [%]	inhibition at 10 µM [2] [%]	inhibition at 100 µM [2] [%]
CC(ONC(=O)c1cc(C(F)(F)F)cc(C(F)(F)F)c1)C(=O)Nc1ccc(Cl)cc1 (stereo not shown) [CCG-1423]		74, ND %	1.5	48, ND %	44, ND %	limited by non-specific toxicity	inhibits	inhibits	1	1									
O=C(Nc1ccc(Cl)cc1)c1ccc(NC(=O)c2cc(C(F)(F)F)cc(C(F)(F)F)c2)cc1 [Compound 38]	> 100											0			0			0	
O=C(NCc1csc(-c2ccc(Cl)cc2)n1)c1cc(C(F)(F)F)cc(C(F)(F)F)c1 [Compound 18, N-((2-(4-chlorophenyl)thiazol-4-yl)methyl)-3,5-bis(trifluoromethyl)benzamide]	4.1											50	45		39	38		0	0
O=C(CC1CC(c2cc(C(F)(F)F)cc(C(F)(F)F)c2)=NO1)Nc1ccc(Cl)cc1 (stereo not shown) [Compound 23, 2-(3-(3,5-bis(trifluoromethyl)phenyl)-4,5-dihydroisoxazol-5-yl)-N-(4-chlorophenyl)acetamide]	4.6											77	87		58	73		0	66
O=C(NCCC(=O)N1CCc2cc(Cl)ccc21)c1cc(C(F)(F)F)cc(C(F)(F)F)c1 [Compound 29, N-(3-(5-chloroindolin-1-yl)-3-oxopropyl)-3,5-bis(trifluoromethyl)benzamide]	13											15	40		0	1		0	0
